From patent publication US12421535B2, “Biochemically produced sandalwood oil” (FIRMENICH SA, priority 2019, dated 2025)

Experiments:
[1] = system: ticks (Ixodes ricinus); test: Tick repellency, adapted Warm Plate assay; assay type: in vivo
Protocol: The repellent effect was determined on ticks (Ixodes ricinus) using an adaptation of the Warm Plate assay as defined in Kröber T, Bourquin M, Guerin P M. A standardised in vivo and in vitro test method for evaluating tick repellents. Pesticide Biochemistry and Physiology. 2013; 107(2):160-168, adapted in reducing the size of the arena and adding a controlled temperature and humid air flow to the set-up.

[2] = system: NHDF; test: Anti-inflammatory test, cytokine release (ELISA), LPS-challenged fibroblasts; assay type: cell-based, human; settings: LPS 0.5 ug/ml
Protocol: (§1) Monolayer cultures of Normal Human foreskin-derived Dermal Fibroblasts (NHDFs; ATCC, CRL-2522) were used for the anti-inflammatory study. The cells were grown in Dulbecco's Modified Eagle Medium (DMEM, Gibco/Life Technologies, 31885) supplemented with 10% of Foetal Bovine Serum (FBS, Gibco/Life Technologies, 10270) and antibiotics (penicillin/streptomycin, Gibco/Life Technologies, 15140). Monolayer cultures of Normal Human Epidermal Keratinocytes (NHEKs; Lonza, 00192906) were used for the anti-inflammatory study. The cells were grown in Epilife medium containing gentamycin and HKGS (Human Keratinocyte Growth Supplement).
(§2) The cells were maintained in a humidified incubator at 37° C. with a 5% CO2 atmosphere for the indicated treatment periods before performing metabolic, cytokine and gene expression assays.
(§3) Both NHEK and NHDF cell types were cultured in 24-well plates for 24 h in complete medium before being exposed to the test and reference items. Test compositions were applied on the cells 2 h before the 24 h-challenge with pro-inflammatory agents (see table below). Each sample was compared to solvent control conditions. At the end of treatment, all the supernatants were collected and stored at −20° C. until further use in specific ELISA assays for the quantification of the extracellular release of IL-8, IL-6, TNF-α, MCP-1 and CXCL5, based on a standard curve, according to the kits supplier's specifications.
(§4) Sandalwood oil of the invention was tested at 20 μg/ml on both keratinocytes and fibroblasts, in a comparison with S. album essential oil. Keratinocytes and fibroblasts were cultivated under conditions that stimulate the onset of inflammation. After induction of an inflammation state and test compounds application, cell culture supernatants were collected for further ELISA quantification. The ability of the ingredients in reducing the production of selected inflammation markers (MCP-1, CXCL5, IL-6, IL-8 and TNFalpha for NHEK only) was then measured by ELISA (Enzyme-Linked ImmunoSorbent Assay), a biochemical assay commonly used to quantify substances.

[3] = system: NHEK; test: Anti-inflammatory test, cytokine release (ELISA), keratinocytes challenged with TNFα or PMA + A23187; assay type: cell-based, human; settings: for IL-6 % Reduction (vs A23187/EtOH) / IL-6 % Stimulation (vs Untreated) / IL-8 % Reduction (vs PMA + A23187/EtOH) / IL-8 % Stimulation (vs Untreated) / TNFα % Reduction (vs PMA + A23187/EtOH) / TNFα % Stimulation (vs Untreated): PMA 10 ng/ml + A23187 2 uM; for CXCL-5 % Reduction (vs TNFa/EtOH) / CXCL-5 % Stimulation (vs Untreated) / MCP-1 % Reduction (vs TNFa/EtOH) / MCP-1 % Stimulation (vs Untreated): TNFa 50 ng/ml
Protocol: as §1, §2, §3, §4

[4] = system: Reconstructed Human Epidermis (RHE) mimicking sensitive skin; test: Protein expression (immuno-fluorescence) in RHE model mimicking sensitive skin; assay type: cell-based; settings: Cytokine Mix + solvent, 10 uM, 48 h, untreated = 100
Protocol: Human epidermis was reconstituted in vitro as described previously. […] Sandalwood oil of the invention was diluted at 20 μg/ml and 40 μg/ml in culture medium and added together with the cytokine cocktail during the same 48 h. The reference compound GW3965 (10 μM), a synthetic nonsteroidal liver X receptor (LXR) agonist was applied in the culture medium for 48 h as well. Protein levels of loricrin, involucrin and HAS3 were quantified at the end of the treatments by immuno-fluorescence. One section of each sample was dewaxed and rehydrated and the slides were incubated in the presence of the primary antibody specific for each of the 3 target proteins. Fluorescein-conjugated secondary antibodies were then used to detect the primary antibodies. DAPI Slowfade Diamond was used to detect the nuclei of the cells.

[5] = system: NHDFs fibroblasts; test: Cytotoxicity MTS assay, NHDFs under LPS challenge; assay type: cell-based, human; settings: SDS 0.08%, 26 h
Protocol: (§5) A preliminary study was performed in order to determine the non-cytotoxic working concentrations for both the sandalwood oil of the invention and a reference sandalwood oil. The cell viability was evaluated using the standard MTS assay (3-(4,5-dimethythiazol-2-yl)-5-(3-carboxy-methoxyphenyl)-2-(4-sulfophenyl)-2H-tetrazolium) after treatment with the test ingredients (160-80-40-20-10 μg/ml, tested in triplicate).
(§6) The test was performed both under basal conditions (i.e. without pro-inflammatory challenge) and pro-inflammatory stimuli for either 24 h-72 h or 26 h, respectively. Cells were seeded in 24-wells plates with complete medium, 24 h before treatment.
(§7) Test ingredients were solubilized in solvent (DMSO or ethanol) and applied to the culture medium of cells 2 hours prior to the pro-inflammatory challenge (when required). SDS at 0.008% or 0.08% was used as cytotoxicity positive control to validate the experiment on NHEKs keratinocytes or NHDFs fibroblasts, respectively.
(§8) In order to ensure experiments would be carried out with test composition concentrations that are non-cytotoxic, a cytotoxicity study was performed on NHEK and NHDF after 26 h of treatment (2 h alone and 24 h under inflammatory challenge with LPS for NHDFs fibroblasts and PMA/calcium ionophore or TNF-α for NHEKs). […]

[6] = system: NHEKs keratinocytes; test: Cytotoxicity MTS assay, NHEKs under PMA/calcium ionophore or TNF-α challenge; assay type: cell-based, human; settings: SDS 0.008%, 26 h
Protocol: as §5, §6, §7, §8

[7] = system: Reconstructed Human Epidermis (RHE); test: Permeability of Reconstructed Human Epidermis, biotin diffusion; assay type: cell-based

CCN(CC)C(=O)c1cccc(C)c1 [DEET, N,N-diethyl-meta-toluamide]
% of affected ticks ([1]; 0.016 mg/mL): 11% | % of affected ticks ([1]; 0.4 mg/mL): 20% | % of affected ticks ([1]; 10 mg/mL): 81%

C[C@@H]1C[C@H]2[C@@H]3CCC4=CC(=O)C=C[C@]4(C)[C@@]3(F)[C@@H](O)C[C@]2(C)[C@@]1(O)C(=O)CO [Dexamethasone]
CXCL-5 % Reduction (vs LPS/EtOH) ([2]; 10 uM): 77% | CXCL-5 % Stimulation (vs Untreated) ([2]; 10 uM): 6414% | IL-6 % Reduction (vs LPS/EtOH) ([2]; 10 uM): −70% | IL-6 % Stimulation (vs Untreated) ([2]; 10 uM): 6606% | IL-8 % Reduction (vs LPS/EtOH) ([2]; 10 uM): −39% | IL-8 % Stimulation (vs Untreated) ([2]; 10 uM): 7738% | MCP-1 % Reduction (vs LPS/EtOH) ([2]; 10 uM): −23% | MCP-1 % Stimulation (vs Untreated) ([2]; 10 uM): 1067% | IL-6 % Reduction (vs A23187/EtOH) ([3]; 10 uM): −55% | IL-6 % Stimulation (vs Untreated) ([3]; 10 uM): 275% | IL-8 % Reduction (vs PMA + A23187/EtOH) ([3]; 10 uM): −25% | IL-8 % Stimulation (vs Untreated) ([3]; 10 uM): 14801% | TNFα % Reduction (vs PMA + A23187/EtOH) ([3]; 10 uM): −57% | TNFα % Stimulation (vs Untreated) ([3]; 10 uM): 33869% | CXCL-5 % Reduction (vs TNFa/EtOH) ([3]; 10 uM): 251% | CXCL-5 % Stimulation (vs Untreated) ([3]; 10 uM): 1525% | MCP-1 % Reduction (vs TNFa/EtOH) ([3]; 10 uM): −53% | MCP-1 % Stimulation (vs Untreated) ([3]; 10 uM): 1432%

O=C(O)Cc1cccc(OCCCN(Cc2cccc(C(F)(F)F)c2Cl)CC(c2ccccc2)c2ccccc2)c1 [GW3965]
Hyaluronan synthase 3 (HAS 3) RQ [4]: 106 | Involucrin (IVL) RQ [4]: 160

CCCCN(CCC(=O)OCC)C(C)=O [IR3535, Ethyl butylacetylaminopropionate]
% of affected ticks ([1]; 0.016 mg/mL): 0% | % of affected ticks ([1]; 0.4 mg/mL): 33% | % of affected ticks ([1]; 10 mg/mL): 56%

CC(C)Cc1ccc(C(C)C(=O)O)cc1 (centres unmarked) [Ibuprofen]
CXCL-5 % Reduction (vs LPS/EtOH) ([2]; 100 uM): −19% | CXCL-5 % Stimulation (vs Untreated) ([2]; 100 uM): 2929% | IL-6 % Reduction (vs LPS/EtOH) ([2]; 100 uM): −24% | IL-6 % Stimulation (vs Untreated) ([2]; 100 uM): 16853% | IL-8 % Reduction (vs LPS/EtOH) ([2]; 100 uM): −14% | IL-8 % Stimulation (vs Untreated) ([2]; 100 uM): 11037% | MCP-1 % Reduction (vs LPS/EtOH) ([2]; 100 uM): −4% | MCP-1 % Stimulation (vs Untreated) ([2]; 100 uM): 1342% | CXCL-5 % Reduction (vs LPS/EtOH) ([2]; 500 uM): −39% | CXCL-5 % Stimulation (vs Untreated) ([2]; 500 uM): 2216% | IL-6 % Reduction (vs LPS/EtOH) ([2]; 500 uM): −46% | IL-6 % Stimulation (vs Untreated) ([2]; 500 uM): 11977% | IL-8 % Reduction (vs LPS/EtOH) ([2]; 500 uM): −36% | IL-8 % Stimulation (vs Untreated) ([2]; 500 uM): 8242% | MCP-1 % Reduction (vs LPS/EtOH) ([2]; 500 uM): −32% | MCP-1 % Stimulation (vs Untreated) ([2]; 500 uM): 950% | IL-6 % Reduction (vs A23187/EtOH) ([3]; 100 uM): −24% | IL-6 % Stimulation (vs Untreated) ([3]; 100 uM): 462% | IL-8 % Reduction (vs PMA + A23187/EtOH) ([3]; 100 uM): −19% | IL-8 % Stimulation (vs Untreated) ([3]; 100 uM): 16034% | TNFα % Reduction (vs PMA + A23187/EtOH) ([3]; 100 uM): −29% | TNFα % Stimulation (vs Untreated) ([3]; 100 uM): 55645% | IL-6 % Reduction (vs A23187/EtOH) ([3]; 500 uM): −67% | IL-6 % Stimulation (vs Untreated) ([3]; 500 uM): 202% | IL-8 % Reduction (vs PMA + A23187/EtOH) ([3]; 500 uM): −39% | IL-8 % Stimulation (vs Untreated) ([3]; 500 uM): 12190% | TNFα % Reduction (vs PMA + A23187/EtOH) ([3]; 500 uM): −85% | TNFα % Stimulation (vs Untreated) ([3]; 500 uM): 12099% | secretion levels of mediators of inflammation ([3]; PMA + A23187 or TNF-α, dexamethasone with the exception of CXCL-5): reduced significantly | CXCL-5 % Reduction (vs TNFa/EtOH) ([3]; 100 uM): −22% | CXCL-5 % Stimulation (vs Untreated) ([3]; 100 uM): 337% | MCP-1 % Reduction (vs TNFa/EtOH) ([3]; 100 uM): −18% | MCP-1 % Stimulation (vs Untreated) ([3]; 100 uM): 2471% | CXCL-5 % Reduction (vs TNFa/EtOH) ([3]; 500 uM): −47% | CXCL-5 % Stimulation (vs Untreated) ([3]; 500 uM): 229% | MCP-1 % Reduction (vs TNFa/EtOH) ([3]; 500 uM): −63% | MCP-1 % Stimulation (vs Untreated) ([3]; 500 uM): 1126%

CCC(C)OC(=O)N1CCCCC1CCO (centres unmarked) [Picaridin, sec-butyl 2-(2-hydroxyethyl)piperidine-1-carboxylate]
% of affected ticks ([1]; 0.016 mg/mL): 8% | % of affected ticks ([1]; 0.4 mg/mL): 50% | % of affected ticks ([1]; 10 mg/mL): 92%

CCCCCCCCCCCCOS(=O)(=O)[O-].[Na+] [SDS]
cell viability [5]: strong decrease in cell viability | cell viability [6]: strong decrease in cell viability | Surface stained*mean intensity/surface area ([7]; 48 h, SDS 0.005%): 103 | biotin abundance (% relative to untreated) ([7]; 48 h, SDS 0.005%, versus untreated): 614% | barrier function of epidermis ([7]; SDS at 0.005%, compared to untreated control): reduced the barrier function
